Experimental data taken from PubChem BioAssay (NCI).
Values joined by “and” are separate entries in the source; they are usually repeats but may differ in a detail not shown here. Equal values may be shown once.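 The compound was tested at five concentrations on cells cultured in 96-well plates, with a 48-hour exposure period. GI50 is the concentration that inhibits growth by half. At the TGI there is no net growth.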

Experiments:
Assay in all cases: DTP human tumour cell line panel, 48 h
OVCAR-8 ovarian = tested on: OVCAR-8 ovarian
SF-539 CNS = tested on: SF-539 CNS
SW-620 colon = tested on: SW-620 colon
NCI/ADR-RES ovarian = tested on: NCI/ADR-RES ovarian
SK-MEL-28 melanoma = tested on: SK-MEL-28 melanoma
BT-549 breast = tested on: BT-549 breast
HCT-15 colon = tested on: HCT-15 colon
K-562 leukemia = tested on: K-562 leukemia
KM12 colon = tested on: KM12 colon
MDA-MB-231 breast = tested on: MDA-MB-231 breast

Structure (SMILES) | GI50 (OVCAR-8 ovarian) | TGI (OVCAR-8 ovarian) | GI50 (SF-539 CNS) | TGI (SF-539 CNS) | GI50 (SW-620 colon) | TGI (SW-620 colon) | GI50 (NCI/ADR-RES ovarian) | TGI (NCI/ADR-RES ovarian) | GI50 (SK-MEL-28 melanoma) | TGI (SK-MEL-28 melanoma) | GI50 (BT-549 breast) | TGI (BT-549 breast) | GI50 (HCT-15 colon) | TGI (HCT-15 colon) | GI50 (K-562 leukemia) | TGI (K-562 leukemia) | GI50 (KM12 colon) | TGI (KM12 colon) | GI50 (MDA-MB-231 breast) | TGI (MDA-MB-231 breast)
COC(=O)[C@@H](C)C[C@H](Cc1ccccc1)NC(=O)c1nc([C@@H](C[C@H](C(C)C)N(C)C(=O)[C@@H](NC(=O)[C@H]2C[C@H](O)CCN2C)C(C)C)OC(C)=O)sc1C(C)C | 0.0193 µM | > 11.1 µM | 0.0159 µM | 0.0505 µM | 0.00533 µM | > 11.1 µM | 2.29 µM | > 11.1 µM | 0.0191 µM | > 11.1 µM | 0.00416 µM | 0.131 µM | 0.284 µM | > 11.1 µM | 0.00267 µM | > 11.1 µM | 0.00473 µM | > 3.95 µM | 0.0067 µM | 0.458 µM
CC(=O)OCC1C(=O)OCC1C(=O)N1Cc2cc3ccccc3nc2C1 (stereo not drawn) | – | 11.5 µM | – | 17.8 µM | – | 1.68 µM | – | 7.56 µM | – | 7.07 µM | – | 6.71 µM | – | 6.99 µM | – | 9.76 µM | – | 30.4 µM | – | 19.9 µM
Cn1cc(-c2ccc3nc(-c4ccc(CC(=O)Nc5cc(C(C)(C)C)no5)cc4)cnc3c2)cn1 | 0.0548 µM | > 3 µM | 0.0274 µM | > 3 µM | 0.0477 µM | > 3 µM | 0.0612 µM | > 3 µM | 0.104 µM | > 3 µM | 0.206 µM | > 3 µM | 0.0197 µM | > 3 µM | 0.017 µM | > 3 µM | 0.00173 µM | > 3 µM | 0.0392 µM | 0.664 µM
CN(C)CCNC(=O)c1cc2c3cc(Cl)ccc3[nH]c2c2ncccc12 | 2.57 µM | 12.7 µM | 1.57 µM | 3.14 µM | 1.47 µM | 3.52 µM | 5.4 µM | 20.8 µM | 2.12 µM | 4.18 µM | 2.26 µM | 7.98 µM | 1.84 µM | 4.9 µM | 1.68 µM | 3.98 µM | 3.03 µM | 13.7 µM | 1.98 µM | 9.77 µM
NS(=O)(=O)c1ccc(N(/C=C/C(=O)C(F)(F)F)CC(=O)c2ccc(F)cc2)cc1 | 42.3 µM | > 100 µM | 20.9 µM | 43 µM | 21.5 µM | 46.6 µM | 18.2 µM | 41.6 µM | 43.7 µM | > 100 µM | 19.3 µM | 43.3 µM | 23.6 µM | 85.5 µM | 14 µM | 54.6 µM | 24.5 µM | 57.9 µM | 20.9 µM | 42 µM
CCCCn1c(=O)[nH]c(N)c([C@@H]2c3c([nH]c(=O)n(CCCC)c3=O)Oc3ccc4ccccc4c32)c1=O | 1.82 µM | 3.51 µM | 7.86 µM | 20.4 µM | 0.37 µM | 1.18 µM | 2.82 µM | 8.84 µM | 2.52 µM | 6.23 µM | 1.83 µM | 3.57 µM | 1.67 µM | 3.41 µM | 12.2 µM | 51.2 µM | 1.69 µM | 3.26 µM | 1.85 µM | 4.58 µM
Cc1ccc(NC(=O)c2ccc(CN3CCN(C)CC3)cc2)cc1Nc1nc(-c2cccnc2)cs1 | 6.91 µM and 3.65 µM | 19.8 µM and > 10 µM | 1.7 µM and 1.13 µM | 6.81 µM and 2.48 µM | 5.68 µM and 4.58 µM | 19.5 µM and > 10 µM | 22.7 µM and 7.39 µM | > 86.7 µM | 12 µM and 2.66 µM | 24.5 µM and 8.57 µM | 8.5 µM and 3.79 µM | 22.1 µM and > 10 µM | 4.52 µM and 3.18 µM | 19.5 µM and > 10 µM | 0.617 µM and 2.96 µM | > 100 µM | 9.85 µM and 6.72 µM | 23.2 µM and > 10 µM | 11.1 µM and 4.43 µM | 29.2 µM and > 10 µM
Cc1c(Cl)cccc1C(=O)Nc1nc2c(s1)CN(C(=O)Nc1cccc(C(F)(F)F)c1)CC2 | 0.277 µM | > 50 µM | 0.155 µM | 0.885 µM | 0.175 µM | > 50 µM | 0.14 µM | 1.01 µM | 0.985 µM | > 50 µM | 0.547 µM | > 50 µM | 0.129 µM | > 50 µM | 0.131 µM | > 50 µM | 0.174 µM | > 21.7 µM | 0.59 µM | > 35.6 µM
Cc1cc(I)cc(CNCCN(C)C)c1O | > 100 µM | > 100 µM | > 89.9 µM | > 100 µM | > 100 µM | > 100 µM | > 84.5 µM | > 100 µM | 28.5 µM | > 80.4 µM | 37.5 µM | > 100 µM | 43.8 µM | > 100 µM | > 76.1 µM | > 100 µM | > 100 µM | > 100 µM | > 59.5 µM | > 100 µM
C=CCc1cccc(C=O)c1O | 39.5 µM | > 100 µM | 30.1 µM | > 100 µM | 50.6 µM | > 100 µM | 20.4 µM | > 100 µM | > 100 µM | > 100 µM | 10.4 µM | > 100 µM | 6.56 µM | > 100 µM | 32 µM | > 100 µM | – | – | 19.1 µM | > 100 µM
Sc1cccc2cccnc12 | 0.537 µM | 15.3 µM | 0.776 µM | 12.9 µM | 1.07 µM | 16.2 µM | 0.955 µM | 9.21 µM | 1.15 µM | 16.2 µM | 1.46 µM | 12.4 µM | 0.427 µM | 14.4 µM | 0.385 µM | > 52 µM | 0.874 µM | 12.1 µM | 1.36 µM | 14.7 µM
O=[N+]([O-])c1ccc(C2=NCCO2)cc1 | > 100 µM | > 100 µM | > 100 µM | > 100 µM | > 100 µM | > 100 µM | > 100 µM | > 100 µM | > 100 µM | > 100 µM | > 100 µM | > 100 µM | > 100 µM | > 100 µM | > 100 µM | > 100 µM | > 100 µM | > 100 µM | > 100 µM | > 100 µM
